Data on three compounds can be found in ChEMBL document CHEMBL3046644, “Biological activity of tropolone” (Biol Pharm Bull, 2003).

Assay [1] has as its system Coptotermes formosanus. The assay can be described thus: Insecticidal activity against Coptotermes formosanus assessed as mortality at 0.00001 g/m'2 after 24 hr. In kind it is functional.
Assay [2] has as its system Coptotermes formosanus. In words: Insecticidal activity against Coptotermes formosanus assessed as mortality at 0.00025 g/m'2 after 48 hr. It is filed as functional.
Assay [3] relates to Coptotermes formosanus. The assay can be described thus: Insecticidal activity against Coptotermes formosanus assessed as mortality at 0.00025 g/m'2 after 24 hr. In kind it is functional.
Assay [4] concerns Coptotermes formosanus. The assay can be described thus: Insecticidal activity against Coptotermes formosanus assessed as mortality at 0.00050 g/m'2 after 24 hr. It is filed as functional.
Assay [5] deals with Coptotermes formosanus. The assay can be described thus: Insecticidal activity against Coptotermes formosanus assessed as mortality at 0.00010 g/m'2 after 48 hr. In kind it is functional.
Assay [6] relates to Coptotermes formosanus. In words: Insecticidal activity against Coptotermes formosanus assessed as mortality at 0.00005 g/m'2 after 24 hr. It is filed as functional.
The test system of assay [7] is Coptotermes formosanus. In words: Insecticidal activity against Coptotermes formosanus assessed as mortality at 0.00050 g/m'2 after 48 hr. In kind it is functional.
Assay [8] deals with Coptotermes formosanus. In words: Insecticidal activity against Coptotermes formosanus assessed as mortality at 0.00005 g/m'2 after 48 hr. In kind it is functional.
The test system of assay [9] is Coptotermes formosanus. In words: Insecticidal activity against Coptotermes formosanus assessed as mortality at 0.00010 g/m'2 after 24 hr. In kind it is functional.
Assay [10] relates to Coptotermes formosanus. In words: Insecticidal activity against Coptotermes formosanus assessed as mortality. It is filed as functional.
The target in the next assay is T1, Collagenase ColG (Clostridium histolyticum, UniProt Q9X721).
T1 sequence (Q9X721 whole entry): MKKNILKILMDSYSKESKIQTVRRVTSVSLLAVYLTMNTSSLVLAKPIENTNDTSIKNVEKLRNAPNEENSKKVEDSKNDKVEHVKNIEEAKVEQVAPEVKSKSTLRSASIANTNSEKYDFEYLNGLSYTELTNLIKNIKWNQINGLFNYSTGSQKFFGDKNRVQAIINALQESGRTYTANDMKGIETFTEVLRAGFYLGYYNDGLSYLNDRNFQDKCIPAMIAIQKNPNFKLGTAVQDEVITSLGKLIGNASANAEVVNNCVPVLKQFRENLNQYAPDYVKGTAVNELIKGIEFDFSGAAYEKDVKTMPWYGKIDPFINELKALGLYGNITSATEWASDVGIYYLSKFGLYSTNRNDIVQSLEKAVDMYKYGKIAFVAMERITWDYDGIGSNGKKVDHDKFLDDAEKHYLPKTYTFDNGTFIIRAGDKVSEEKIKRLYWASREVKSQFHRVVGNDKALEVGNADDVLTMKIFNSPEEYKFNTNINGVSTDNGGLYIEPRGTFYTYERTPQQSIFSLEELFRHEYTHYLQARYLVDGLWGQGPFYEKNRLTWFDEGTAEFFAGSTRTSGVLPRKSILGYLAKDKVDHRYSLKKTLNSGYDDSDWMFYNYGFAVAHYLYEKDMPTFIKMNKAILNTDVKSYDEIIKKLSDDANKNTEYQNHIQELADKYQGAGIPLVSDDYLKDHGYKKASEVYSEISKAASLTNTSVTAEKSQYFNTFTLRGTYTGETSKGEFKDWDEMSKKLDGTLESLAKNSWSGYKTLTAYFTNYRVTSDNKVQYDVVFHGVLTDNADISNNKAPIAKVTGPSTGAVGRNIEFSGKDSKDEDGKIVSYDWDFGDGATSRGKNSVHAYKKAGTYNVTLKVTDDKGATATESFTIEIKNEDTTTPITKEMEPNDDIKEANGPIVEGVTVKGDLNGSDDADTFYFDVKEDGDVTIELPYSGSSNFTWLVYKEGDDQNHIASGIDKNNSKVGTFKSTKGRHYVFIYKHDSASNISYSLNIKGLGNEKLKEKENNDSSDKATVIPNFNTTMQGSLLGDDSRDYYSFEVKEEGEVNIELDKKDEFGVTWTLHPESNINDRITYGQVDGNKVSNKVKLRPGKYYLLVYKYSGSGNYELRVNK
The assay can be described thus: Inhibition of Clostridium histolyticum collagenase after 15 min. More on the design: species or system Hathewaya histolytica.

In another assay the target is T2, Thermolysin (Bacillus thermoproteolyticus, UniProt P00800).
T2 sequence (P00800 whole entry): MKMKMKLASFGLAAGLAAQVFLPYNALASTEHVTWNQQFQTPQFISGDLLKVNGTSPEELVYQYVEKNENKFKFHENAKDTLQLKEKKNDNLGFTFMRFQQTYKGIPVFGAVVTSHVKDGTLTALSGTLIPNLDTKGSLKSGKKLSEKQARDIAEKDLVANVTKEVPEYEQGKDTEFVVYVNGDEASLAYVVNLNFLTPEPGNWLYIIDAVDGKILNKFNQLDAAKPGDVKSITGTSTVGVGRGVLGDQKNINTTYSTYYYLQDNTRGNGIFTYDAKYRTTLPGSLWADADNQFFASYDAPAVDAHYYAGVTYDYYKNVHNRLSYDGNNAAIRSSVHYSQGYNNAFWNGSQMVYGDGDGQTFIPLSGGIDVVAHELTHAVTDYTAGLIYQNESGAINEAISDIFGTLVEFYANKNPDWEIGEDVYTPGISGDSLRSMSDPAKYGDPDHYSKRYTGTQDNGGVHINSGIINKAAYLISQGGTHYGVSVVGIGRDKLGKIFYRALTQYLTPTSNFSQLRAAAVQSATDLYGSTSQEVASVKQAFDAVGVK
In words: Inhibition of Bacillus thermoproteolyticus thermolysin after 15 min.

The target in the next assay is T3, Carboxypeptidase A1 (Bos taurus, UniProt P00730).
T3 sequence (P00730 whole entry): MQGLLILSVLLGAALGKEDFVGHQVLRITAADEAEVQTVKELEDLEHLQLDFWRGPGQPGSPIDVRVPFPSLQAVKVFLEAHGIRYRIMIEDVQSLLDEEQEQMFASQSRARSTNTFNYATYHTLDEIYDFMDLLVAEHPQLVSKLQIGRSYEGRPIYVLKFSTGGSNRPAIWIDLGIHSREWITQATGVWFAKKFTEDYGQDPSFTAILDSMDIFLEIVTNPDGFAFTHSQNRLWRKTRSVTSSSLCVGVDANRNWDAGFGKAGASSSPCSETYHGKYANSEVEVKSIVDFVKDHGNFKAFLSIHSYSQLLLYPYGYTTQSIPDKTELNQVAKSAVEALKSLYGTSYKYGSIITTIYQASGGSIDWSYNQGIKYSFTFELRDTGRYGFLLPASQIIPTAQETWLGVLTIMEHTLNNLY
In words: Inhibition of Bos taurus (bovine) pancrease carboxypeptidase A after 15 min.

The subject of assay [11] is Dermatophagoides farinae. In words: Insecticidal activity against Dermatophagoides farinae assessed as mortality at 1 g/m'2 after 24 hr by clip method. In kind it is functional.
Assay [12] deals with Dermatophagoides farinae. The assay can be described thus: Insecticidal activity against Dermatophagoides farinae assessed as mortality at 0.10 g/m'2 after 24 hr by clip method. In kind it is functional.
The test system of assay [13] is Tyrophagus putrescentiae. In words: Insecticidal activity against Tyrophagus putrescentiae assessed as mortality at 1 g/m'2 after 24 hr by clip method. It is filed as functional.
For assay [14], the system named is Dermatophagoides farinae. The assay can be described thus: Insecticidal activity against Dermatophagoides farinae assessed as mortality at 0.50 g/m'2 after 24 hr by clip method. It is filed as functional.
Assay [15] relates to Tyrophagus putrescentiae. In words: Insecticidal activity against Tyrophagus putrescentiae assessed as mortality at 0.50 g/m'2 after 24 hr by clip method. In kind it is functional.
The subject of assay [16] is Tyrophagus putrescentiae. The assay can be described thus: Insecticidal activity against Tyrophagus putrescentiae assessed as mortality at 0.10 g/m'2 after 24 hr by clip method. It is filed as functional.
The test system of assay [17] is Tyrophagus putrescentiae. In words: Insecticidal activity against Tyrophagus putrescentiae assessed as mortality after 24 hr by clip method. In kind it is functional.
The test system of assay [18] is Tyrophagus putrescentiae. The assay can be described thus: Insecticidal activity against Tyrophagus putrescentiae assessed as mortality at 0.20 g/m'2 after 24 hr by clip method. In kind it is functional.
For assay [19], the system named is Dermatophagoides farinae. The assay can be described thus: Insecticidal activity against Dermatophagoides farinae assessed as mortality after 24 hr by clip method. It is filed as functional.
For assay [20], the system named is Dermatophagoides farinae. In words: Insecticidal activity against Dermatophagoides farinae assessed as mortality at 0.20 g/m'2 after 24 hr by clip method. In kind it is functional.

Broadly, the mortality is the percentage killed. With `CCOP(=S)(OCC)Oc1nc(Cl)c(Cl)cc1Cl` [CHLORPYRIFOS], the mortality was 0% in the assay on Coptotermes formosanus [1]; 100% with Coptotermes formosanus [2]; 60% in the assay with Coptotermes formosanus [3]; 100% in the assay on Coptotermes formosanus [4]; 75% in the assay with Coptotermes formosanus [5]; 10% in the assay with Coptotermes formosanus [6]. The values for the mortality in the assay with Coptotermes formosanus [7], in the assay with Coptotermes formosanus [8] and with Coptotermes formosanus [9] were 100%, 40% and 25%, respectively. Moreover, the LC50 with Coptotermes formosanus [10] is 0.00016 g/m2.
By IC50 is commonly meant the concentration needed to halve the response being measured. Higher therefore signals weaker potency. For `c1cnc2c(c1)ccc1cccnc12` [PHENANTHROLINE], the IC50 at Collagenase ColG turned out to be 185 µM; against Thermolysin, 360 µM; on Carboxypeptidase A1 it was 422 µM.
In the case of `CCN(CC)C(=O)c1cccc(C)c1` [DIETHYLTOLUAMIDE], the mortality with Dermatophagoides farinae [11] stood at 45.5%; in the assay on Dermatophagoides farinae [12] it was 0%; in the assay on Tyrophagus putrescentiae [13], 67.1%; with Dermatophagoides farinae [14], 20.5%; in the assay with Tyrophagus putrescentiae [15], 18.9%; with Tyrophagus putrescentiae [16], 0%. Further, the mortality was found to be 4.5% in the assay with Tyrophagus putrescentiae [18] and 7.2% in the assay with Dermatophagoides farinae [20]. Further, the values for the LC50 in the assay with Tyrophagus putrescentiae [17] and with Dermatophagoides farinae [19] were 1.46 g/m2 and 0.79 g/m2, respectively.
